This is an account of results in patent publication US7893252B2, “Selectively depolymerized galactomannan polysaccharide” (priority 2003, dated 2011).

Entries after “also recorded” stand apart in the source; their conditions may differ.

One data set relates to beagle dogs. Briefly: 28-day canine study (Example 9). The format is in vivo. As to conditions: galactomannan at 500 mg/m2, daily IV for four consecutive days. The protocol: In a 28-day canine study, single daily IV doses of saline, 6 mg/kg (120 mg/m2) 5-FU and ([…] (240 mg/m2) galactomannan or 4/2 mg/kg (80/40 mg/m2), 6/3.2 mg/kg (120/64 mg/m2) or 6/6 mg/kg (120/120 mg/m2) 5-FU/galactomannan were injected for four consecutive days to six groups of beagle dogs Mortality occurred in 13 of 48 dogs (five moribund sacrifices and eight found dead) between Study Days 2 and 5 (4/4 males on 5-FU; 3/4 males in the 4/2 mg/kg 5-FU/galactomannan group; 2/4 males and 1/4 females in the 6/3.2 and 6/6 mg/kg 5-FU/galactomannan groups, respectively).
Adverse effects in 5-FU groups included ataxia, prostration, vocalization, convulsions, tremors, hypersensitivity to touch, aggressive behavior (resulting in only three doses being given to the 6/3.2 5-FU/galactomanna group), emesis, salivation, soft stools and decreased red cell parameters and platelet counts. […] At the day 5 necropsy, treatment-related histological changes were largely limited to the 5-FU females. At day 29 necropsy, there were no remarkable changes in the survivors.

Another data set relates to dogs. Briefly: Acute toxicology, single IV injection in dogs. The format is in vivo. As to conditions: 5-FU 28.5 mg/kg, galactomannan 15 mg/kg, combination 28.5/15 mg/kg. The protocol:
Acute toxicology studies of the galactomannan of the present invention were performed in mice, rats and dogs and subchronic toxicology studies were performed in rats and dogs. The following is a summary of the findings of these studies:
The surviving dogs remained clinically normal and had no treatment-related changes in body weight, feed consumption, ECG tracings, clinical pathology or gross tissue changes during the 21-day study period.

For data set [1], the system named is human colon tumor COLO 205. Briefly: Efficacy study in COLO 205 human colon tumor xenografts, q4d×3 (Example 3). The settings on record: i.v. q4d×3, 5-FU 75 mg/kg/dose, GM 120 mg/kg/dose. The protocol: The both studies were conducted as follows.
5-FU alone was administered i.v. on the same q4d×3 treatment schedule at doses of 75 mg/kg/dose (225 mg/m2/dose). 5-FU was formulated in saline fresh on each day of treatment at a concentration of 3.75 mg/mL, at pH 9.2. […] Both individual compounds and their mixture were administered according to exact body weight with injection volume being 0.2 mL/10 g body weight.
There were a total of four groups of 10 animals each, s.c.-implanted with COLO 205 human colon tumor xenografts.
(A xenograft is tissue or cells of one species grown in another, often human tumour cells in immunodeficient mice.)

In data set [2] the test system is COLO 205 human colon tumor xenografts. Briefly: Efficacy and compatibility with leucovorin in COLO 205 human colon tumor xenografts, q4d×4 (Example 4). The protocol:
The principal differences with the study described in Example 3 were that (a) the galactomannan was from another source, of a different size (molecular weight) and with a different Man/Gal ratio, (b) there were four consecutive injections, not three, (c) there were four doses of the galactomannan tested, not one, (d) 5-FU was administered (i.v.) in 48 mg/kg/dose, not 75 mg/kg/dose, as in the first study, and (e) galactomannan (i.v. injection) was compared with leucovorin (oral gavage, administered two hours after 5-FU) in terms of efficacy and toxicity. […] 5-FU alone was administered i.v. on the same q4d×4 treatment schedule at dosages of 48 mg/kg/dose. 5-FU was formulated in saline fresh on each day of treatment at a concentration of 4.8 mg/mL, at pH 9.2. […] Leucovorin powder (clinical formulation, Leucovorin calcium for injection) was reconstituted with water for injection to yield a concentration of 10 mg/mL. On each day of treatment the stock solution was diluted with water for injection to yield a concentration of 2.5 mg/mL.
Two more combination-treatment groups were also included in the study. One group of mice was treated with 5-FU (48 mg/kg/dose, i.v., q4d×4), followed by oral gavage (p.o.) with leucovorin, administered two hours after 5-FU at a dosage of 25 mg/kg/dose. Another two groups of mice were treated with 5-FU in a combination with the galactomannan (48 mg/kg/dose and 120 mg/kg/dose, respectively, i.v., q4d×4), followed by p.o. leucovorin treatment, administered at a dosage of 25 mg/kg/dose two hours after 5-FU plus the galactomannan.
There were a total of nine groups of 10 animals each, s.c.-implanted with COLO 205 human colon tumor xenografts.

Another data set has as its system mice. Briefly: Acute toxicology, single IV dose in mice. As to conditions: single IV dose; galactomannan (336 mg/m2), 112 mg/kg (336 mg/m2); combination 417/222 mg/kg (1251/666 mg/m2); n=5/group. The class given is in vivo. As to the method:
Acute toxicology studies of the galactomannan of the present invention were performed in mice, rats and dogs and subchronic toxicology studies were performed in rats and dogs. The following is a summary of the findings of these studies: […]

Setting [3] is: i.v. q4d×4, 5-FU 48 mg/kg/dose, GM 120 mg/kg/dose.

In the case of “(((1,4)-linked β-D-mannopyranose)17-((1,6)-linked-β-D-galactopyranose)10)12) [GM]”, the adverse effects result in the data set with beagle dogs is given as “no observed adverse effects”. Also, the death in the data set on dogs is 0/2. For the same substance, in data set [1], the mean survival time was found to be 19.2 days, the “median to quadrupling of tumor volume” value is 15.5 days, the “median tumor volume after 56 days of the study” value is 1813 mm3 and the tolerability result is given as “well tolerated”. For the same substance, the “tumor regression after 56 days of the study” value in data set [1] was “no tumor regression”. Moreover, the treatment-related deaths entry in data set [1] (10 mice per group, within two weeks) is recorded as “No deaths”. Besides, in data set [2] (GM 120 mg/kg/dose alone, q4d×4), the “tumor growth delay / tumor regression after 13 days” value is on record as “did not delay growth; also recorded: No tumor regression”. Further, in data set [2] (setting [3]), the “median to quadrupling of tumor volume” value was 6.9 days and the “median tumor volume after 13 days” value was 1152 mm3. Moreover, the “clinical signs of toxicity, death or decreased weight gain” value with mice was “no clinical signs of toxicity, death or decreased weight gain”.
